Test results from patent US8221736B2, “Semiochemical” (Rothamsted Research Limited, priority 1999, dated 2012).

How the values were obtained:
[1] = tested on: hop aphid, Phorodon humuli; experiment: Preliminary field trials, yellow water traps, hop aphid summer morphs; format: in vivo; details: slow release 2.05 μg/day/trap; P<0.04
[2] = tested on: cereal aphids (predominantly Metropolophium dirhodum) on winter wheat, Triticum aestivum; experiment: Field study of cereal aphids on sprayed winter wheat plots; format: in vivo; details: sprayed 50 g a.i./ha on 5 May and 11 Jun. 1999
Description: The data have been transformed back from the logs to ease presentation. […] The predominant aphid species was Metropolophium dirhodum, the rose-grain aphid. S. avenae and Rhopalosiphum padi were also present, but numbers were very low. […] Plots (6 m×6 m) of winter wheat, Triticum aestivum (cv Consort), were arranged in a 5×5 quasi-complete Latin square design. The five cis-jasmone treated plots were sprayed on 5 May and 11 Jun. 1999, using a hand-held hydraulic device, at a rate of 50 g active ingredient/ha in 200 l/ha of aqueous […] BV (0.1%). Control plots were untreated. […] At each count, five tillers were inspected at 12 separate sites on two diagonal transects totalling 60 tillers per plot. Transformed data (y=log(y+1)) were subjected to ANOVA and the sums of squares of the treatments were partitioned to test for significant differences.

[3] = tested on: seven-spot ladybird, Coccinella seplempunclata; experiment: Olfactometer assay with seven-spot ladybird; format: in vivo; details: 0.5 μl microcaps, position noted every 2 min for 20 min, 8 replicates; control arms 2.4±0.69; P<0.005
Description: Since semiochemicals acting as repellents or inhibitors of host attractancy for herbivorous insects are often involved in predation or parasitism, the activity of cis-jasmone was also investigated at higher trophic levels. […] These experiments indicate a behavioural role for cis-jasmone in influencing interactions between plants, herbivorous insects and their predators and parasitoids. Apparatus and methodology were similar to that employed for aphids (above). The test compound was applied in 0.5 μl microcaps (Drummond Sci. Co.) at the end of one of the side arms and each arm was supplied with moist filter paper to minimize differences in relative humidity. Individual C. septempunctata were introduced into the centre of the arena and their positions noted every 2 min for 20 min. The experiment was replicated 8 times and results analysed as above.

[4] = tested on: broad bean, V. faba (cv The Sutton); experiment: Induction of volatile release by bean plants (air entrainment, GC/GC-MS); format: in vivo, Vicia faba; details: 24 hour exposure at 100 μg/l in air; from some replicates
Method: A possible role for the compound as an airborne plant signal was investigated using the broad bean, V. faba (cv The Sutton). Plants were kept for 24 hours in clean air or in air incorporating cis-jasmone at 100 μg/l; subsequently, samples of volatiles released by the plants were obtained by entrainment over 4 periods of 48 hours, i.e. up to 192 hours after the end of the treatment. The cis-jasmone itself was undetectable after 48 hours. […] There was also, from some replicates, enhancement of (E,E)-α-farnesene, (−)-β-caryophyllene and (E)-4,8-dimethyl-1,3,7-nonatriene. These compounds have all been implicated in herbivorous insect-induced production and increased parasitoid foraging. The nonatriene can also be produced innately by plants imitating damage for defence against herbivores and which are thus attractive to parasitoids.
Bean plants, V. faba (cv The Sutton) were grown under standard glasshouse conditions until the 2-4 leaf stage when they were rinsed free of soil and transplanted into baked glass jars containing washed sand, with 3 plants per jar. These were left for 1-2 days to acclimatize. Plants to be treated (three jars of three plants each) were sealed in a 25 l glass tank for 24 hours with either cis-jasmone or methyl jasmonate (2.5 mg) applied to a piece of filter paper (Whatman No. 1) placed on the floor of the tank. […]

[5] = tested on: D251 sequence in Vicia faba plants; experiment: Differential display and northern blot of gene-specific sequence D251; format: in vivo; details: northern blot, versus air
Method: Total RNA was isolated from stem or leaf tissue of plants exposed to air, methyl jasmonate or cis-jasmone. 10 μg RNA per sample was loaded and separated on a formaldehyde gel (Panel A). The samples were then transferred to a nylon membrane and probed with the D251 sequence (Panel B). Lane 1=air treatment (control); lane 2=cis-jasmone treatment; lane 3=methyl jasmonate treatment. In the case of RNA isolated from leaf tissue, only cis-jasmone treatment results in upregulation. In order to determine if cis-jasmone was capable of inducing alterations in plant gene expression, the sensitive technique of differential display was carried out on RNA extracted from plants which had been exposed to air, methyl jasmonate or cis-jasmone. […] To confirm this observation, bands of interest were recovered by excision from the dried gel and re-amplified with the appropriate pair of oligonucleotide primers. The resulting PCR products were cloned and sequenced to confirm the homogeneous nature of the amplified product. These sequences were then used to probe RNA isolated from control or treated V. faba plants. […] It is important to note that the nature of the differential display technique generates short gene-specific probes, containing mainly 3′ untranslated regions of transcribed sequences, and therefore the functional part of the differentially expressed gene is unknown. Thus, using differential display and confirmatory northern blotting, we have shown that methyl jasmonate and cis-jasmone have apparently distinct effects on plant gene expression. […] Thus, the two compounds have distinct effect on plant gene expression and the response to these signalling compounds may be tissue-specific.

adult Lepidoptera = details: U.S. Pat. No. 5,665,344; cited from earlier work

In the case of `CC/C=C\CC1=C(C)CCC1=O` [cis-jasmone], the “reduction of catches in water traps with visual (yellow) attractancy” value [1] is reported as 40%, the “numbers of parasitized aphids, treated versus untreated plots” value [2] is reported as “no significant difference” and the “numbers of cereal aphids per 60 tillers, treated versus untreated plots” value ([2]; five sampling dates, significant on last two dates) is reported as “consistently lower”. For the same compound, the “mean number of observations in the treated arm” value [3] was 4.1±1.55, the “release of (E,E)-α-farnesene, (−)-β-caryophyllene and (E)-4,8-dimethyl-1,3,7-nonatriene” value [4] was “enhancement” and the “expression of D251 sequence in leaf tissue” value ([5]; RNA from leaf tissue of plants exposed to vapour) was “upregulated”. The “expression of D251 sequence in stem tissue” value ([5]; RNA from stem tissue of plants exposed to vapour) was “upregulated to a similar level” and the “behavioural effect on adult Lepidoptera” value (adult Lepidoptera) was “attract adult Lepidoptera”.
